Reference: patent US20240092728A1, “HYDROXY-SUBSTITUTED SPHINGOLIPIDS” (Evonik Operations GmbH, priority 2021, published 2024)

What was measured:
[1] = system: normal human epidermal keratinocytes (NHEK); test: DNA damage and repair after UV irradiation (Comet assay); format: cell-based
Method: (§1) The extent to which the substances of the invention are able to exert a protective effect on normal human epidermal keratinocytes (NHEK) exposed to UV irradiation was examined.
(§2) For this, corresponding investigations were carried out of biomarkers for reactive oxygen species (ROS), quantified with 2,7-dichlorodihydrofluorescein diacetate, and DNA damage and repair, quantified by the Comet assay.
6-well plates were seeded with the keratinocytes, which were incubated for 48 hours in culture medium, with the medium replenished after 24 hours. The medium was then replaced by culture medium containing the test compounds or the references (0.3 mM control) or in which they were absent (control) and the cells were incubated for 24 hours. After the preincubation, the culture medium was removed and assay medium again added and the cells were irradiated with 250 mJ/cm^2 UVB+UVA (+1.6 J/cm^2) in the absence of the compounds. The lamp used was a SOL500 solar simulator (Dr. Hönle, AG) fitted with an H2 filter. An unirradiated control condition was carried out in parallel. All experimental conditions were carried out in duplicate.
At the end of the irradiation, the culture supernatants were discarded and the cells were washed with phosphate-buffered saline (PBS) prior to analysis.
The cells were trypsinized and counted and the supernatant was removed after centrifugation. The cells were then washed with PBS solution and suspended in the same PBS solution so as to achieve a cell concentration of 1×10^5 cells/ml. The cell suspension was then mixed with molten (37° C.) 1% agarose gel of low melting point and pipetted onto the Comet microscope slides (duplicate analysis for each condition). For cell lysis, the microscope slides were immersed in a freshly prepared alkaline solution (200 mM NaOH containing 1 mM EDTA, pH>13) on an electrophoresis support. The gel electrophoresis was carried out at 21 volts for 30 minutes. The Comet microscope slides were washed twice with water, each time for 5 minutes, then washed with 70% ethanol for 5 minutes and air-dried at 37° C. for 15 minutes.
After the electrophoresis, each dried sample was stained with a DNA intercalating fluorescent dye (SYBR Green solution). The cells were then observed in epifluorescence using an automated IN Cell Analyzer™ 2200 microscope image analyser (GE Healthcare) (X10 objective lens). On excitation (ex 494 nm, em 524 nm), the DNA-bound SYBR® Green emits green light. […] If DNA damage has occurred, the alkali treatment causes the DNA to […], releasing fragments that migrate outside the cell when exposed to an electric field. The negatively charged DNA migrates to the anode, the extrusion length being proportional to the relaxation of the supercoiled structure, which is an indicator of damage. When alkaline electrophoresis conditions are employed, the distribution of the DNA between the tail and comet head can be used to determine the extent of the DNA damage. The images of the cells were analysed with OpenComet in conjunction with ImageJ software. In each replicate of the analysis, a minimum value of 500 events was analysed.

sun-stressed skin [2] = test: In-vivo study: skin roughness on inside of forearm (Visioscan VC 98); design: species or system human; unit not given here; conditions: formulation applied twice daily to forearm; for Decrease in roughness W2 − W0: after 2 weeks; for Decrease in roughness W4 − W0: after 4 weeks; for Decrease in roughness W8 − W0: after 8 weeks
Method: (§3) For the in-vivo study, 24 test subjects (male and female) with sun-stressed skin were recruited. In order to ensure sun-stressed skin, this study was carried out in the period from September to November. […] The test subjects received either two different test formulations, which they applied to one forearm each, or one test formulation. which was applied to one forearm with the second forearm remaining untreated (control). The test formulations were a vehicle and a formulation containing 0.1% of hydroxybutyroyl phytosphingosine (hydroxybutyroyl PS). The various test combinations were assigned to the test subjects randomly. The test subjects applied the test formulations for a period of 8 weeks twice daily to the inside and outside of in each case one forearm. The following measurements on the forearms were carried out before the start of application and after two, four and eight weeks: • 1. Colour measurement: A colorimeter probe (Skin-Colorimeter CL 400, Courage & Khazaka, Cologne) was used to measure the parameters L* and ITA° on the outside of the forearm. L* describes the black/white value of the skin, ITA° describes the skin tone. When skin becomes lighter, both values show an increase. • 2. Skin roughness: This parameter was determined by means of a special camera on the inside of the forearm (Visioscan VC 98, Courage & Khazaka). This camera records a digital black-and-white image of the skin. The grayscale distribution of the image can be used to determine the skin roughness. • 3. Density of the dermis: The density of the dermis was determined by ultrasound on the outside of the forearm (SkinLab Combo, Cortex Technologies, Denmark). For this, a special probe transmits an ultrasound signal to the skin and records the reflection. This reflection can be used to determine a value for the skin density. A reduced skin density is shown in particular by areas of skin that have been very strongly exposed to sunlight.

sun-stressed skin [3] = test: In-vivo study: density of the dermis by ultrasound on outside of forearm; design: species or system human; unit not given here; conditions: formulation applied twice daily to forearm; for Δ skin density W2 − W0: after 2 weeks; for Δ skin density W4 − W0: after 4 weeks; for Δ skin density W8 − W0: after 8 weeks
Method: as §3

sun-stressed skin [4] = test: In-vivo study: skin colour measurement (L*, ITA°) on outside of forearm; design: species or system human; conditions: formulation applied twice daily to forearm; for ΔITA° W2 − W0 / ΔL* W2 − W0: after 2 weeks; for ΔITA° W4 − W0 / ΔL* W4 − W0: after 4 weeks; for ΔITA° W8 − W0 / ΔL* W8 − W0: after 8 weeks
Method: as §3

[5] = system: normal human epidermal keratinocytes (NHEK); test: ROS production after UV irradiation (2,7-DCDHF-DA fluorescence); format: cell-based
Method: as §1, §2
The intracellular formation of reactive […] species (ROS) is inter alia a factor that leads to damage of cellular DNA by UV radiation.
96-well plates were seeded with keratinocytes, which were cultured for 24 hours in culture medium and then for a further 24 hours in assay medium. The medium was then replaced by a test medium containing the test compounds or the references (100 μM vitamin E and 10 μM EGCG) or in which they were absent (irradiated control) and the cells were preincubated for 24 hours. After preincubation, the medium was removed and replaced by assay medium, the fluorescent probe (2,7-dichlorodihydrofluorescein diacetate (10 μM 2,7-DCDHF-DA in assay medium) was added and the cells were incubated at 37° C. for 30 minutes. The cells were then washed with PBS solution and irradiated with 100 mJ/cm^2 UVB+UVA (+0.7 J/cm^2) without compounds or references. The lamp used was a SOL500 solar simulator with H2 filter (Dr. Honle, AG). After irradiation, the cells were incubated for 30 minutes. An unirradiated control and the conditions without sample (background noise) were carried out in parallel.
All experimental conditions were carried out in triplicate.
The emitted intensity of fluorescence (ex=485 nm, em=538 nm) was measured using an EnVision® (Perkin Elmer) microplate reader.
The intensity of fluorescence of the metabolized sample (DCF) was proportional to the formation of ROS. ROS production was therefore expressed as the relative intensity of fluorescence.

[6] = 10 μM, 24 h preincubation, 250 mJ/cm^2 UVB+UVA
[7] = 10 μM, 24 h preincubation, 100 mJ/cm^2 UVB+UVA
[8] = 5 μM, 24 h preincubation, 100 mJ/cm^2 UVB+UVA

| Compound | protective effect against DNA damage after UV irradiation [1, 6] [%] | Decrease in roughness W2 − W0 (sun-stressed skin [2]) | Decrease in roughness W4 − W0 (sun-stressed skin [2]) | Decrease in roughness W8 − W0 (sun-stressed skin [2]) | Δ skin density W2 − W0 (sun-stressed skin [3]) | Δ skin density W4 − W0 (sun-stressed skin [3]) | Δ skin density W8 − W0 (sun-stressed skin [3]) | ΔITA° W2 − W0 (sun-stressed skin [4]) | ΔL* W2 − W0 (sun-stressed skin [4]) | ΔITA° W4 − W0 (sun-stressed skin [4]) | ΔL* W4 − W0 (sun-stressed skin [4]) | ΔITA° W8 − W0 (sun-stressed skin [4]) | ΔL* W8 − W0 (sun-stressed skin [4]) | protective effect against the formation of ROS [5, 7] [%] | protective effect against DNA damage after UV irradiation ([1]; 5 μM, 24 h preincubation, 250 mJ/cm^2 UVB+UVA) [%] | protective effect against the formation of ROS [5, 8] [%] | protective effect against DNA damage after UV irradiation ([1]; 2 μM, 24 h preincubation, 250 mJ/cm^2 UVB+UVA) [%] | protective effect against DNA damage after UV irradiation ([1]; concentration not stated (FIG. 2)) | protective effect against the formation of ROS ([5]; concentration not stated (FIG. 1; with increasing concentration)) | protective effect against DNA damage after UV irradiation ([1]; reference 0.3 mM, 250 mJ/cm^2 UVB+UVA) |
| --- | --- | --- | --- | --- | --- | --- | --- | --- | --- | --- | --- | --- | --- | --- | --- | --- | --- | --- | --- | --- |
| 3-Hydroxypropioyl phytosphingosine [Ex 1c] | 13 | −1.20 | −5.55 | −6.21 | .82 | 0.98 | 0.82 | 2.41 | 0.58 | 4.89 | 1.92 | 8.67 | 2.55 | 5 | – | – | – | – | – | – |
| 6-Hydroxyhexanoyl phytosphingosine [Ex 1b] | – | −6.20 | −14.36 | −15.88 | 3.33 | 4.24 | 4.63 | 5.11 | 1.38 | 7.53 | 2.51 | 12.24 | 4.38 | – | – | – | – | – | – | – |
| CCCCCCCCCCCCCCC[C@@H](O)[C@H](CO)NC(=O)C(O)C(C)(C)CO (some centres unmarked) [Ex 5b, 2-hydroxy-3,3-dimethyl-hydroxybutyroyl sphinganine] | – | −3.2 | −12.34 | −13.63 | 2.23 | 3.25 | 3.64 | 3.54 | 0.92 | 6.21 | 2.02 | 10.52 | 3.28 | – | 24 | 22 | – | – | – | – |
| CCCCCCCCCCCCCCC(O)C(O)C(CO)NC(=O)C(O)C(C)(C)CO (centres unmarked) [Example 5, 2-hydroxy-3,3-dimethyl-hydroxybutyroyl phytosphingosine] | – | – | – | – | – | – | – | – | – | – | – | – | – | – | – | 38 | 39 | – | – | – |
| CCCCCCCCCCCCCC[C@@H](O)[C@@H](O)[C@@H](N)CO [phytosphingosine] | – | – | – | – | – | – | – | – | – | – | – | – | – | – | – | – | – | cannot be demonstrated | No significant protective effect | – |
| O=S(=O)(O)c1cc(O)c(O)c(S(=O)(=O)O)c1 [tiron] | – | – | – | – | – | – | – | – | – | – | – | – | – | – | – | – | – | – | – | approximately 60% |
| Ceramide 3 [Cer 3] | 12 | 0.05 | −5.12 | −4.66 | 1.20 | 1.50 | 1.80 | 2.34 | 0.60 | 5.21 | 1.82 | 8.79 | 2.61 | 4 | – | – | – | – | – | – |
